Test results: ChEMBL document CHEMBL1201862, “PubChem BioAssay data set” (2004)
The source made the active and inactive calls.

Key:
HeLa = assay: HeLa cell cytotoxicity, dose response, cytotoxicity control for MITF activator project, CellTiter-Glo luminescence, cherry-pick samples (AID 540259); assay type: functional, cell-based; details: Homo sapiens
Coagulation factor XII = target: T1, Coagulation factor XII (Homo sapiens, UniProt P00748); assay type: functional;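 also: activated factor XIIa alpha cleaving a fluorogenic AMC peptide substrate; inhibitor potency from loss of enzyme activity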
T1 sequence (P00748 whole entry): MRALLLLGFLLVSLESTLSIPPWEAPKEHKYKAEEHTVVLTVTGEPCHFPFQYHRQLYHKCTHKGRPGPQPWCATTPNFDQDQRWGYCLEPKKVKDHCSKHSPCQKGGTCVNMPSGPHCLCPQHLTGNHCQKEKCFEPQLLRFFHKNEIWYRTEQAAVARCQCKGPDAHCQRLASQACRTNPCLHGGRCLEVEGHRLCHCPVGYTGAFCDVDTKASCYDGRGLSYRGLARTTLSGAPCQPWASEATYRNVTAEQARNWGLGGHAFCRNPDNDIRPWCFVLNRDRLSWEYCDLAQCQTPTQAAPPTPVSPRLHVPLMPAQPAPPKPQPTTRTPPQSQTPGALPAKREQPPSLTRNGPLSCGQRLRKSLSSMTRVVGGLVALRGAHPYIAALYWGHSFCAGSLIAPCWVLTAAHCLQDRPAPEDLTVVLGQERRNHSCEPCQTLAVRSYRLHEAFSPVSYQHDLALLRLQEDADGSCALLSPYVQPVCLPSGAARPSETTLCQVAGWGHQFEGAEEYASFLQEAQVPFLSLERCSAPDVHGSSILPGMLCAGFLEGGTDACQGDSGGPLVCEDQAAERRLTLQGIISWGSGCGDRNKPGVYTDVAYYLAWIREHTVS

[1] = Luminescence Cell-Based Dose Response HTS to Identify Inhibitors of 5'UTR Stem-Loop Driven Prion Protein mRNA Translation in H4 Neuroglioblastoma Cells. [Related pubchem assays: 1827 (Project Summary), 1813 (Primary HTS)]; assay type: functional
[2] = inhibitors of SNCA 5'UTR-driven reporter translation, confirmation, H4 neuroglioma cells, luminescence (AID 1988); assay type: functional, cell-based
[3] = inhibitors of firefly luciferase expression or activity, dose response, H4 neuroglioma cells, luminescence (AID 1990); assay type: functional, cell-based
[4] = target: Glucose-6-phosphate 1-dehydrogenase (Homo sapiens, UniProt P11413); assay: human G6PD enzyme inhibitors, dose response, selectivity assay for P. falciparum G6PD inhibitor project, biochemical, fluorescence (AID 504792); assay type: functional
[5] = target: T2, Carboxy-terminal domain RNA polymerase II polypeptide A small phosphatase 1 (Homo sapiens, UniProt Q9GZU7); assay: inhibitors of CTDSP1, concentration-response testing, biochemical assay, absorbance-based, actives from ultra-high-throughput screening (AID 540297); assay type: functional
T2 sequence (Q9GZU7 whole entry): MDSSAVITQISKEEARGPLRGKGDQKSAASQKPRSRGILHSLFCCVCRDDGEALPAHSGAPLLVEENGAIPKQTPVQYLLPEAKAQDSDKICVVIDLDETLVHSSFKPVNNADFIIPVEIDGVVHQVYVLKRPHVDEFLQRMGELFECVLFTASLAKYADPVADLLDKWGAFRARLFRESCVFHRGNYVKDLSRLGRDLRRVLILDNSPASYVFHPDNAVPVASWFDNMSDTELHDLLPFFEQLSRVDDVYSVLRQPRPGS

[6] = target: T3, Endoribonuclease toxin MazF (Escherichia coli K-12, UniProt P0AE70); assay: fluorescent RNA oligo signal without MazF, dose response, counter-screen for MazEF activator project, biochemical, fluorescence, single-stranded RNase substrate (AID 588502); assay type: functional
T3 sequence (P0AE70 whole entry): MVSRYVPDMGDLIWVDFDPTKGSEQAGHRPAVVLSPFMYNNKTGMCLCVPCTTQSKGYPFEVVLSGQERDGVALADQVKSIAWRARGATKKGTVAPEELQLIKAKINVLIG

Genome polyprotein = Genome polyprotein (dengue virus type 2, UniProt P29990); assay: Dengue-2 NS5 methyltransferase inhibitors, primary screen, biochemical, confirmation dose response (AID 588689); assay type: functional
[7] = target: T4, Corticotropin-releasing factor receptor 2/Corticotropin-releasing factor-binding protein (Homo sapiens, UniProt P24387+Q13324); assay: activators of CRF receptor 2 with binding protein – uHTS hits, confirmation (AID 602473); assay type: functional; details: read-out: EC50_Mean
T4 sequence (Q13324 whole entry): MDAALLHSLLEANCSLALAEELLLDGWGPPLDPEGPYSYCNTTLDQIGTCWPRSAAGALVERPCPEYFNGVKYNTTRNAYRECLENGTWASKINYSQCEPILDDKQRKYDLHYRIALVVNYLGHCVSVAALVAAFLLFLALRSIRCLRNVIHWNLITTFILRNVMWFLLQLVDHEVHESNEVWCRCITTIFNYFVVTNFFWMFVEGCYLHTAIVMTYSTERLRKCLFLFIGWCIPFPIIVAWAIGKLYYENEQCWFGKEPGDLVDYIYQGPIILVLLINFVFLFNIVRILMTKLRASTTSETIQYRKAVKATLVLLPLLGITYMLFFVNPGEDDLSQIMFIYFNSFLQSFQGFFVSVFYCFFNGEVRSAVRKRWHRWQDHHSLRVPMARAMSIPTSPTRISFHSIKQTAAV
T4 sequence (P24387 whole entry): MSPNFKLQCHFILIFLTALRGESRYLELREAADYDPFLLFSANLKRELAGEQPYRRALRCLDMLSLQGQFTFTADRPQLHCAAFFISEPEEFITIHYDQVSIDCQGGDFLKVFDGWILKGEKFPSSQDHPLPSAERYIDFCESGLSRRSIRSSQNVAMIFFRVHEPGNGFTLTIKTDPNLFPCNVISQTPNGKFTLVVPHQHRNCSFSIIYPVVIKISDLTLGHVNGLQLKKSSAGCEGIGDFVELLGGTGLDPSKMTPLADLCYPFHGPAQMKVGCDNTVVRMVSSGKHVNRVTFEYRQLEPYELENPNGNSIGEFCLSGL

[8] = target: T5, Sentrin-specific protease 1 (Homo sapiens, UniProt Q9P0U3); assay: Dose response confirmation of small molecule inhibitors of the catalytic domain of the SUMO protease, SENP1 in a FRET assay.; assay type: functional; details: read-out: IC50_Mean
T5 sequence (Q9P0U3 whole entry): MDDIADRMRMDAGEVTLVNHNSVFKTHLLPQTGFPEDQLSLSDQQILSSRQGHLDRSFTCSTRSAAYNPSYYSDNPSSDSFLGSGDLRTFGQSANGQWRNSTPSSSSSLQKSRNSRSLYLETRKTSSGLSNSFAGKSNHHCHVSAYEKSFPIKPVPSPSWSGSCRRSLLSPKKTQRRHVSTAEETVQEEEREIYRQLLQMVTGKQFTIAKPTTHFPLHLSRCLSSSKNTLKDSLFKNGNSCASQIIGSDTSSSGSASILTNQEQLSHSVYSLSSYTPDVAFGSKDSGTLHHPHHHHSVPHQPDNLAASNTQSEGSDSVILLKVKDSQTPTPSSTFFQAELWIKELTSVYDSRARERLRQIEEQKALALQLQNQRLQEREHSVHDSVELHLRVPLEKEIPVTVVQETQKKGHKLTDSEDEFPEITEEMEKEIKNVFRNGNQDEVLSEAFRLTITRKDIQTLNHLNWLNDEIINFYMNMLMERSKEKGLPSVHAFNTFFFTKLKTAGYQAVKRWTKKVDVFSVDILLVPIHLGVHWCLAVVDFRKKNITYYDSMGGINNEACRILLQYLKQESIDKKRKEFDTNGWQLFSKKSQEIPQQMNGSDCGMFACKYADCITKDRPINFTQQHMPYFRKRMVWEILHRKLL

[9] = target: T5, Sentrin-specific protease 1; assay: potency of human SENP1 inhibitors, dose response, biochemical, kinetic FRET (AID 651697); assay type: functional; details: read-out: IC50_Mean
[10] = target: T3, Endoribonuclease toxin MazF; assay: MazF toxin RNase activators, dose response, biochemical, fluorescence, single-stranded RNA substrate, uHTS hits (AID 588481); assay type: functional
[11] = target: T6, Short transient receptor potential channel 4 (Mus musculus, UniProt Q9QUQ5); assay: mouse TRPC4 channel activators, dose response, cell-based, HEK293 TRPC4/mu-opioid, Fluo-4 calcium (AID 434937); assay type: functional
T6 sequence (Q9QUQ5 whole entry): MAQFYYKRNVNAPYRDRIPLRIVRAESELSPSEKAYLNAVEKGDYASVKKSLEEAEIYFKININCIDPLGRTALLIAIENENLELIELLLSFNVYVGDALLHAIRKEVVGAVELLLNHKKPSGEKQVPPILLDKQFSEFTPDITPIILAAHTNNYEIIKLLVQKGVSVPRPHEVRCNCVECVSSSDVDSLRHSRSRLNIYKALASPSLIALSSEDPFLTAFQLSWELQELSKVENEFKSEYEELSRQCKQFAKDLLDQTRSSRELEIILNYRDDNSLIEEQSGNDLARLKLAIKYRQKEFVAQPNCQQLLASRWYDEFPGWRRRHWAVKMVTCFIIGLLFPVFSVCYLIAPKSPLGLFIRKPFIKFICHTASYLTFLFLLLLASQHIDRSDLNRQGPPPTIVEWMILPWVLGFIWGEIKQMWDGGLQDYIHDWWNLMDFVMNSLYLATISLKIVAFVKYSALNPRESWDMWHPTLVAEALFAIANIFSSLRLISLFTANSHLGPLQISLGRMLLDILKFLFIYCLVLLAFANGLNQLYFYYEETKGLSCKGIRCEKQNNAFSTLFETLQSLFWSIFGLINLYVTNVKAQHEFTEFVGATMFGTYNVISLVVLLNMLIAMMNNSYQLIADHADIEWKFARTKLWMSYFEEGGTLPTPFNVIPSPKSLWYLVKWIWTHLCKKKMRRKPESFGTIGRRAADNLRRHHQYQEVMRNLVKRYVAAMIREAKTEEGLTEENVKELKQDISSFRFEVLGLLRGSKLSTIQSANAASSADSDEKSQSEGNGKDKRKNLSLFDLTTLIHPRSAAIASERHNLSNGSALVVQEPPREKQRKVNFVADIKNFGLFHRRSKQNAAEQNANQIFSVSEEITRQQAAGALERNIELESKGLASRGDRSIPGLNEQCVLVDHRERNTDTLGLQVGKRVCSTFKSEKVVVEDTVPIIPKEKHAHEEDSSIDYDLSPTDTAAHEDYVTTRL

Glucose-6-phosphate 1-dehydrogenase, sequence (P11413 whole entry, the tested form may be a part): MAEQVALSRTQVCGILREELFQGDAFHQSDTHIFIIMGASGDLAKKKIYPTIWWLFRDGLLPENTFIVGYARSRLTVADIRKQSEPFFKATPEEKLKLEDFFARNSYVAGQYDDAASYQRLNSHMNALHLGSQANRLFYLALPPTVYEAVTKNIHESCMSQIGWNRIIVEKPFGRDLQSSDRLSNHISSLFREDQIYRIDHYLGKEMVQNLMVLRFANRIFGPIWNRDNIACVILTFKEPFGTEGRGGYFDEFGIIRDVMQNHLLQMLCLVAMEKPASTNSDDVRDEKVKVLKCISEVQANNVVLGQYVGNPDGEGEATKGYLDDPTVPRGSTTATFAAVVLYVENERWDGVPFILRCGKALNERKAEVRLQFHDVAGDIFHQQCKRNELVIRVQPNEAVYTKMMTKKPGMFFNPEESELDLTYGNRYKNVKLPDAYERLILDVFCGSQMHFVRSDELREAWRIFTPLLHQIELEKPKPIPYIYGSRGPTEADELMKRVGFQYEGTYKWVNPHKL
Genome polyprotein, sequence (P29990 2492-3391 limits assumed): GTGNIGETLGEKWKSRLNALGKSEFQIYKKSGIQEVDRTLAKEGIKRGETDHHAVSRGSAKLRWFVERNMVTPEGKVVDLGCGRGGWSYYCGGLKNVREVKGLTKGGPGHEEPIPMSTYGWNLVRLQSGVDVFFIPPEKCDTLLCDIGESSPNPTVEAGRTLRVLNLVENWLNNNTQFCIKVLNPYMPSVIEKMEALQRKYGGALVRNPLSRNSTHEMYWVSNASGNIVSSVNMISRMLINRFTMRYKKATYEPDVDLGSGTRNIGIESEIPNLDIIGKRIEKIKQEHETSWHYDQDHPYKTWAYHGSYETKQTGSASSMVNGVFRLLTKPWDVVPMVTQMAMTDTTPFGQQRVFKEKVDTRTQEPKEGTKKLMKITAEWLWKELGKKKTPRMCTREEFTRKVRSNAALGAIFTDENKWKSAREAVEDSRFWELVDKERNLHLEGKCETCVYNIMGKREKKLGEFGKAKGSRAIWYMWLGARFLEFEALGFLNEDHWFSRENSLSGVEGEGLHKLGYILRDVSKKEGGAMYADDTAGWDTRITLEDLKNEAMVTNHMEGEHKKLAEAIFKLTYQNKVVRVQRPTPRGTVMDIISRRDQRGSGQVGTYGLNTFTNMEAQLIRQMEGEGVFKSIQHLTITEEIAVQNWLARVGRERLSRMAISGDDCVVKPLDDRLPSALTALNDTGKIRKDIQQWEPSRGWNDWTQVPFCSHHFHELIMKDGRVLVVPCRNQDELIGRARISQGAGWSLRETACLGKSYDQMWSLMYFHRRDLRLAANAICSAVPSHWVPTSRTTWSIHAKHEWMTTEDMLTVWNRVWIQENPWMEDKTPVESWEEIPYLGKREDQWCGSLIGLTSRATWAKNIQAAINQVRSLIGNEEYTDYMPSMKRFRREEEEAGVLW

SMILES: COc1ccc(OC)c(/C=N/N(C)c2ccccc2)c1
- AC50 (HeLa): 44.7 µM (active)

SMILES: CCCN(CCC)c1ncnc2c1cnn2-c1ccc(OC)cc1
- AC50 (HeLa): 46.3 µM (active)

SMILES: O=C(COC(=O)c1ccccc1Br)Nc1ccc(F)cc1
- IC50 (Coagulation factor XII): > 50 µM (inactive)

SMILES: CC1(C)OC(=C/C=N/c2ccc(Cl)cc2)OC1(C)C
- EC50 [1]: > 120 µM (not active)
- EC50 [2]: > 120 µM (not active)
- EC50 [3]: > 120 µM (not active)
- IC50 (Coagulation factor XII): > 50 µM (inactive)

SMILES: CC(C1CC2CCC1C2)N1CC(=O)C(c2nc3ccccc3[nH]2)=C1N (centres undefined)
- IC50 (Coagulation factor XII): > 50 µM (inactive)

SMILES: Cc1ccsc1/C=N/NC(=O)Nc1ccccc1
- AC50 (HeLa): 60.6 µM (active)

SMILES: Cc1cccc(C(=O)Oc2ccc(/C=N/O)cc2)c1
- AC50 (HeLa): 41 µM (active)

SMILES: COc1cc(/C=N/Nc2nncn2N)ccc1OCc1c(C)no[n+]1[O-]
- IC50 [4]: 56.3 µM (inactive)

SMILES: Cc1cc(N=NC(=O)c2ccccc2O)c2ccccc2c1O
- IC50 [5]: 5.15 µM (active)
- IC50 [4]: > 80 µM (inactive)

SMILES: Cn1c(=O)c2[nH]c(-c3ccccc3)c(O)c2n(C)c1=O
- EC50 [6]: 23.3 µM (inactive)
- IC50 (Genome polyprotein): 18.5 µM (active)
- EC50 [7]: > 53 µM (inactive)
- IC50 [8]: 5.27 µM (active)
- IC50 [9]: 5.99 µM (active)
- EC50 [10]: 33.8 µM (inactive)
- IC50 [4]: > 80 µM (inactive)

SMILES: Cc1nc2ccccn2c1P(=S)(N1CCCCC1)N1CCCCC1
- EC50 [7]: 23.7 µM (active)
- EC50 [11]: 5.96 µM (active)

SMILES: COc1ccc(CN(C(=O)c2snc(C(N)=O)c2N)C(C(=O)NC(C)(C)C)c2ccco2)cc1 (centres undefined)
- IC50 (Coagulation factor XII): > 50 µM (inactive)

SMILES: Cc1cc(Br)c2[nH]c3c(c2c1)CCCC3=O
- IC50 (Coagulation factor XII): > 50 µM (inactive)
